Reference: patent publication US8030304B2, “Thiazole pyrazolopyrimidines CRF1 receptor antagonists” (Eli Lilly and Company, priority 2006, dated 2011)
Substitutions are numbered along the chain they refer to.

Legend:
[1] = Bioavailability and pharmacokinetic properties (volume of distribution, plasma clearance)
Description: (§1) Bioavailability and Pharmacokinetic Properties
(§2) The volume of distribution (Vdist) relates the amount of the drug in the body to the concentration of the drug in the blood or plasma. […] The volume of distribution reflects the extent to which the drug is present in the extravascular tissue. A large volume of distribution reflects the tendency of a compound to bind to the tissue components compared with plasma protein binding.
(§3) To test for volume of distribution, Male Sprague Dawley rats (N=3) are administered a single 1 mg/kg intravenous dose of compound. Multiple plasma samples are collected at time points from 0.08 to 24 hours post-dose. The plasma samples are analyzed by LC/MS/MS to determine the plasma concentrations. Plasma pharmacokinetic calculations are performed to determine the pharmacokinetic parameters including Vdist and plasma clearance (Clp).
(§4) Further, the plasma clearance (CLp) is a measure of the rate of removal of the drug from the body. Following an intravenous dose and first-order kinetics, the plasma clearance may be determined using the following equation: CLp=Dose/AUC, where
(§5) AUC is the total area under the curve that describes the concentration of the drug in the plasma as a function of time from zero to infinity.

[2] = target: T1, binding of 125I-sauvagine to the cerebellum (Rattus norvegicus, UniProt P35353); test: In vivo potency assessment using ex vivo binding; conditions: oral route
T1 construct: from tissue; host or cells: rat cerebellum
T1 sequence (P35353 24-415): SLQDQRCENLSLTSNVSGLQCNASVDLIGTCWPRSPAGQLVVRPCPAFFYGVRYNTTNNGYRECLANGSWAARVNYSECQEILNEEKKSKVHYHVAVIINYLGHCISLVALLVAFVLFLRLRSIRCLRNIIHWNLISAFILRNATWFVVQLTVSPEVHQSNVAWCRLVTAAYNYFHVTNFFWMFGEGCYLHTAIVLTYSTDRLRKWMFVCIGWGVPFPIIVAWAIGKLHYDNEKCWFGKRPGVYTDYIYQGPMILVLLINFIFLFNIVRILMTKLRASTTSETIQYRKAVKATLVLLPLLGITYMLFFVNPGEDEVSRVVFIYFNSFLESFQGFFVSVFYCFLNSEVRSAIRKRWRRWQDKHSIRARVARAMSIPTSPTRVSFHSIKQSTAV
Description: In Vivo Potency Assessment Using Ex Vivo Binding
To assess in vivo potency, a compound of the present invention is evaluated using ex vivo binding. Using the procedures as provided in D. R. Gehlert et al., EJP 509: 145-153 (2005), a compound is administered to a rat via the oral route.

human CRF1 = target: T2, human CRF1 (Homo sapiens, UniProt P34998); test: CRF1 filter binding assay; conditions: HEK-hCRF1 membranes, 125I-sauvagine; read-out: Ki (inhibition constant)
T2 construct: expressed in transfected cells
T2 sequence (P34998 24-415): T1 sequence (P35353 24-415) with R6H, N9S, T13A, V16I, V153M, A163G, V209I, H229Y, R356H
Description: CRF1 Filter Binding Assay
The limitations of plasmid-based human CRF1 expression, in terms of generating a recombinant cell line with sufficient receptor density to develop a binding assay, are overcome by using a Phoenix retroviral expression system licensed from Stanford. The stable HEK-hCRF1 cell line is used to prepare membranes and binding reactions (200 μL) are set up as follows: 50 μL of ^125I-sauvagine (0.2 nM final), 50 μL compound and 100 μL CRF1 membrane (25 μg/reaction). The reactions are incubated at room temperature for 2 h and then terminated by filtration through pre-treated FB Millipore glass fiber filter plates (96 well). The plates are washed twice with ice-cold assay buffer (50 mM tris, 12.5 mM NaCl, 1 mM EDTA, 10 mM MgCl2, 0.05% BSA, pH 7.2), air dried over night and counted with 100 μL Microscint 40 in a MicroBeta counter. Non-specific binding (NSB) is determined in the presence of 0.5 μM non-labeled sauvagine. Triplicate determinations are typically run and the median data points plotted by Graph Pad Prism.

human CRF2 = target: T3, human CRF2 (Homo sapiens, UniProt Q13324); test: CRF2 filter binding assay; conditions: at a concentration of 50 μM
T3 construct: expressed in transfected cells
T3 sequence (Q13324 1-411): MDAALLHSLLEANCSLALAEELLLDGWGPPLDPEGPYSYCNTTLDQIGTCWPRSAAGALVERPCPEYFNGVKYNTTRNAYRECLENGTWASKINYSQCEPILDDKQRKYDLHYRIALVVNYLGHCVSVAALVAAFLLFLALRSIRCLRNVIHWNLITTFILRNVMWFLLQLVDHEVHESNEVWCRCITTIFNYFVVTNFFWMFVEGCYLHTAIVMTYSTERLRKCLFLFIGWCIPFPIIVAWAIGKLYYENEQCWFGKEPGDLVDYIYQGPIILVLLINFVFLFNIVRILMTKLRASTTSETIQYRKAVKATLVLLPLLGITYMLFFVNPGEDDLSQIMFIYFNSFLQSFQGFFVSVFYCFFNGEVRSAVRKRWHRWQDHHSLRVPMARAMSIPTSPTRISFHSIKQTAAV
Description: CRF2 Filter Binding Assay
The limitations of plasmid-based human CRF2 expression, in terms of generating a recombinant cell line with sufficient receptor density to develop a binding assay, are overcome by using a Phoenix retroviral expression system licensed from Stanford. The stable HEK-hCRF2 cell line is used to prepare membranes and binding reactions (200 μL) are set up as follows: 50 μL of ^125I-sauvagine (0.2 nM final concentration), 50 μL compound and 100 μL CRF2 membrane (25 μg/reaction). The reactions are incubated at room temperature for 2 hours and then terminated by filtration through pre-treated FB Millipore glass fiber filter plates (96 well). The plates are washed twice with ice-cold assay buffer (50 mM tris, 12.5 mM NaCl, 1 mM EDTA, 10 mM MgCl2, 0.05% BSA, pH 7.2), air dried over night and counted with 100 μL Microscint 40 in a MicroBeta counter. Non-specific binding (NSB) is determined in the presence of 0.5 μM non-labeled sauvagine. Alternatively, compounds are evaluated using a Scintillation Proximity assay. […] Bound radioactivity is assessed using a Wallac Trilux scintillation counter. Binding is assessed typically using triplicate determinations and the median data points plotted by Graph Pad Prism. […]

in vivo = conditions: male, Sprague Dawley, rat, iv
Description: as §1, §2, §3, §4, §5

[3] = male, Sprague Dawley, rat, plasma, iv, 1 mg/kg

Structure (SMILES): CCCCN(CC)c1nc(C)nc2c1c(C)cn2-c1c(C)cc(C)cc1C [CP154526]
- Vd [1, 3]: 114 L/kg
- clearance [1, 3]: 83 mL/min/kg

Structure (SMILES): CCC(CC)c1cc(C)nc2c(-c3sc(N(C)C)nc3Cl)c(C)nn12 [Example 15, {4-Chloro-5-[7-(1-ethyl-propyl)-2,5-dimethyl-pyrazolo[1,5-a]pyrimidin-3-yl]-thiazol-2-yl}-dimethyl-amine]
- inhibition at 10 mg/kg [2]: 65%
- Ki (human CRF1): 6.2 nM
- inhibition at 50 µM (human CRF2): 11%
- clearance (in vivo): 23.6 mL/min/kg
- Vd (in vivo; 1 mg/kg): 7.2 L/kg

Structure (SMILES): CCCN(CCC)c1cc(C)nc2c(-c3cnc(N(C)C)cc3C)c(C)nn12 [NBI30775]
- rat Vdist (volume of distribution) ([1]; single intravenous dose of 1 mg/kg, analyzed separately): 76 L/kg
